We go through seven compounds from patent US20150224157A1, “PROCESS FOR THE PREPARATION OF HERBAL EXTRACT OF CASSIA TORA LEAVES FOR TREATING ANXIETY DISORDERS” (priority 2009, published 2015).

Assay [1] has as its system aflatoxin B-1-8,9-epoxide formation. The following applies: cited from earlier work.
Assay [2] deals with Swiss Albino male mice. The experiment in a line: Elevated plus maze test in mice. The format is in vivo. The following applies: Diazepam 1.5 mg/kg p.o. As to the method:
1. Animals: Swiss Albino male mice 20-25 gm body weights were procured from Laboratory Animal Services Division of Central Drug Research Institute, Lucknow. All animals were kept in polyacrylic cage in environmentally controlled rooms (temperature 24-27° C. and humidity 60-65% with 12:12 light:dark cycle). Food was provided in the form of dry pellets and water ad libitum. Each animal was used only once in the behavioral tests and were habituated with the experimental room one day prior to the experiment All experiments involving animals complies with the ethical standards of animal handling and approved by Institutional Animal Ethics Committee.
Treatment of animals: Diazepam was diluted in distilled water, administered by […]. The extract was dissolved in 0.5% gum acacia suspension and administered by oral route.
Elevated plus maze test in mice: This test was used to evaluate the anti-anxiety activity. The test is based on the principal of conflict between exploration and fear of open/or closed arms. Apparatus consists of a raised stainless steel maze of four arms arranged in ‘+’ sign. Two of opposite arms are enclosed by raised walls whereas other arms are kept open. All the four arms consist of infrared beams at regular distance. The movement of animal across the arms is calculated by interruption of beams, which was analyzed by Maze Tracking Software (M/s. Columbus Instruments, USA). The trial was started by placing an animal on the central platform of the maze facing an open arm. Animals were given a period of 2 min to acclimatize with its surroundings. The time spent in each of the two types of arm was recorded during the next 5 min test period. The percentage open arm time were used as index of anxiety. The apparatus was cleaned thoroughly between trials with damp and dry towels.
Diazepam (1.5 mg/kg) and the Cassia tora leaves extract (100 mg/kg) was orally administered one hour prior to the experiment.

The conditions of assay [3]: cited from earlier work.
For assay [4] the following is noted: dose of 0.2 mg/mL; cited from earlier work.

As usually defined, the IC50 is the concentration needed to halve the response being measured. Consider `O=C1c2cccc(O)c2C(=O)c2cccc(O)c21` [anthrarufm, anthrarufin], for which, in assay [1], the IC50 was 11.5 µM.
`CN1C(=O)CN=C(c2ccccc2)c2cc(Cl)ccc21` [Diazepam]: in assay [2] (extract 100 mg/kg p.o., P<0.01), the “percentage of time spent in open arms in comparison to saline treated control mice” value is on record as “significant increase”. In assay [2] (mice, extracts 100 mg/kg p.o.), the “% time spent in open arms” value was determined as 23.38%. The “Time spent in open arms (secs) out of 300 secs” value in assay [2] (mice, extracts 100 mg/kg p.o., one hour prior, Mean ± SEM) is 70.16 ± 4.09 s.
Regarding `CC1=CCC(O)(C(C)C)CC1` (stereo not drawn) [4-terpineol], the “IC50 against hydroxyl radicals” value in assay [3] is listed as 87.5 mu g/mL.
Consider `O=C1c2ccccc2C(=O)c2c(O)ccc(O)c21` [quinizarin], for which, in assay [1], the concentration for half-maximal inhibition (IC50) is 4.12 µM.
On to `O=c1c(O)c(-c2ccc(O)c(O)c2)oc2cc(O)cc(O)c12` [quercetin], for which the “IC50 against hydroxyl radicals” value in assay [3] is given as 8.15 mu g/mL.
In the case of `Cc1c(C)c2c(c(C)c1O)CC[C@@](C)(CCC[C@H](C)CCC[C@H](C)CCCC(C)C)O2` [alpha-tocopherol], the “inhibition of peroxidation of linoleic acid” value in assay [4] is 82%.
With `O=C1c2ccc(O)cc2C(=O)c2ccc(O)cc21` [anthraflavine], the concentration for half-maximal inhibition (IC50) in assay [1] is 26.9 µM.
